The text below walks through data of patent US20070010548A1, “Compounds having inhibitive activity of phosphatidylinositol 3-kinase and methods of use thereof” (ZENTARIS GmbH, priority 2003, published 2007).

Read-outs that look alike come from different tables or passages of the source.

Assay [1] relates to tumor cells altered in PI 3-K/PTEN. The assay can be described thus: Cellular growth inhibition assays on tumor cells altered in PI 3-K/PTEN. The settings on record: for IC50: approximate, read-out: Approx. mIC50 in cellular assays. The class given is cell-based. As for the experimental part: (§1) The ovarian cancer cell line SKOV3 is not altered in PI 3-K signaling and should be less sensitive to the anti-proliferative effects produced by treatment with PI 3-K inhibitors, while the OVCAR3 cell line, which is altered in PI 3-K signaling, via amplification of PI 3-K activity, should be sensitive. SKOV3 cells were seeded in 96-well cell culture plates (Greiner) at a density of 20,000 cells per well in McCoys 5A media (GibcoBRL) with 10% fetal calf serum and 20 mM L-glutamine. OVCAR3 cells were seeded at a density of 15,000 cells per well in RPMI 1640 media (GibcoBRL) containing 20 mM 1-glutamine, 0.01 ng/ml bovine insulin, 10 mM Hepes pH 7.4, 1 mM sodium pyruvate, 2.5 g/L glucose, and 20% fetal calf serum. After 24 hours, compounds were added to cell media to a final concentration of 1 μM, and the cells were grown in the presence of the compounds for 48 hours, in media containing 0.5% fetal calf serum. Viability was determined using a MTT cell proliferation assay (R and D Systems) and comparison to DMSO alone controls (100% viability). Compounds which result in reduced viability may act either by inhibiting cell proliferation or by inducing apoptosis (programmed cell death).
Selected compounds were evaluated against paired ovarian cancer cell lines at a range of concentrations to determine effective concentrations for growth inhibition.
MDA-MB-468 and MDA-MB-231 cells were seeded in 96-well cell culture plates (Greiner) at a density of 20,000 cells per well in RMPI media (GibcoBRL) with 10% fetal calf serum and 20 mM L-glutamine. After 24 hours, compounds were added to cell media to a final concentrations ranging from 10 nM to 100 μM, and the cells were grown in the presence of the compounds for 48 hours in RMPI media containing 0.5% fetal calf serum and 20 mM L-glutamine. Viability was determined using a MTT cell proliferation assay (R and D Systems) and comparison to DMSO alone controls (100% viability). Compounds which result in reduced viability may act either by inhibiting cell proliferation or by inducing apoptosis (programmed cell death). […] Selected compounds were evaluated against the paired breast cancer cell lines at a range of concentrations to determine effective concentrations for growth inhibition.
Table 3 summarizes the data for several compounds of this structural group, including the IC50 for inhibition of enzyme activity in vitro, cellular mIC50 and anti-proliferative activity against tumor cells altered in PI 3-K mediated signaling, and effects on cellular levels of phospho-Akt.

Assay [2] has as its system SKOV3 cells. Briefly: MTT cell proliferation/viability assay, SKOV3 ovarian cancer cells. The class given is cell-based. The note with it: Homo sapiens. As to the method: as §1
(§2) Many of these also show similar selective effects on cell growth. Table 2 summarizes the results of two separate cell proliferation experiments for selected compounds of the present invention.

The subject of assay [3] is OVCAR3 cells. The assay can be described thus: MTT cell proliferation/viability assay, OVCAR3 ovarian cancer cells. Type of assay: cell-based. The settings on record: Homo sapiens. As to the method: as §1, §2
Assay [4] concerns MA-MB-468 cells. Briefly: Three dimensional matrix model of tumor cell growth. The class given is cell-based. The note with it: Homo sapiens, read-out: Percent Inhibition of Tumor Cell Viability. As to the method: PI 3-K inhibitors are assayed for effects on tumor cells grown in three-dimensional matrix that more closely mimics the environment of a tumor than other cell culture models. MA-MB-468 cells are mixed in a matrix solution, such as Matrigel (13D Biosciences) at 2×10 ^6 cells/ml and 100 μl of this mixture added to each well of a 24 well cell culture plate. Each well is 6.5 mm in diameter and 2×10^5 cells are added per well. Once the matrix is solidified, RMPI media containing 10% fetal calf serum and 2 mM L-glutamine is added to each well. After approximately 14 days of culture, the compounds are added to cell media at final concentrations ranging from 10 nM to 100 μM, and the cells are grown in the presence of the compounds for 7 days in RMPI media containing 0.5% fetal calf serum and 20 mM L-glutamine.
Following this treatment, cell growth in the three dimensional matrix can be measured using a cell viability assay such as the CellTiter 96 One Solution Cell Proliferation Assay (Promega, G3582). […] of assay solution is added per well, the cells are incubated for 3 hours. Absorbance at 550 nm is determined for each well and used directly as being equivalent of cell number. In addition, live and dead cells can be distinguished and observed using fluorescence microscopy after staining with Fluorescein diacetate (Sigma), which labels live cells, and propidium iodide (Sigma), which labels dead cells.
The PI 3-K inhibitors of the present invention show anti-proliferative effects in this model of tumor cell growth, as shown by the representative data in Table 6, which compares the anti-proliferative effects of one inhibitor compared to the effects of the benchmark PI 3-K inhibitor LY294002. The PI 3-K inhibitors of the present invention also show enhanced anti-proliferative activity when combined with other cancer drugs, for example paclitaxel or doxorubicin.

Assay [5] relates to PI 3-K. The settings on record: background literature; read-out: IC50 (inhibits PI 3-K); cited from earlier work.
The mark [6] stands for this setting: SK-OV-3, 48 hours, MTT, DMSO alone controls = 100% viability, Trial 1, read-out: Trial 1 SKOV-3 (viability).
The mark [7] stands for this setting: SK-OV-3, 48 hours, MTT, DMSO alone controls = 100% viability, Trial 2, read-out: Trial 2 SKOV-3 (viability).
[8] abbreviates: SK-OV-3, average of Trial 1 and Trial 2, 48 hours, read-out: Average SKOV3 (viability).
The mark [9] stands for this setting: OVCAR-3, 48 hours, MTT, DMSO alone controls = 100% viability, Trial 1, read-out: Trial 1 OVCAR3 (viability).
The mark [10] stands for this setting: OVCAR-3, 48 hours, MTT, DMSO alone controls = 100% viability, Trial 2, read-out: Trial 2 OVCAR3 (viability).
Setting [11] is: OVCAR-3, average of Trial 1 and Trial 2, 48 hours, read-out: average OVCAR-3 (viability).

With `CC1(C)CC(=O)C2=C(C1)Nc1c(c(-c3ccccc3)nn1-c1ccc(F)cc1)C2c1ccc(C(C)(C)C)cc1` (stereo not drawn) [Compound 963924], in assay [1], the “Anti-proliferative effects on tumor cells altered in PI 3-K/PTEN” value (“Anti-proliferative effects” below) is given as “Yes”. Besides, in assay [1], the IC50 was less than 20 µM. For the same compound, the viability (as a rule, a read-out of living cells in per cent, often relative to untreated cells) at 1 µM in assay [2] (setting [6]) is 100%; in assay [2] (setting [7]), 100%; in assay [2] (setting [8]), 100%; in assay [3] (setting [9]) it was 61%; in assay [3] (setting [10]), 66.4%; in assay [3] (setting [11]), 63.7%.

For `CCOc1ccc(C2C3=C(CC(C)(C)CC3=O)Nc3c2c(C(C)(C)C)nn3C(C)(C)C)cc1` (stereo not drawn) [Compound 963977], the viability at 1 µM in assay [2] (setting [6]) was 98%; in assay [2] (setting [7]) it was 81.7%; in assay [2] (setting [8]), 89.8%; in assay [3] (setting [9]) it was 41%; in assay [3] (setting [10]) it was 59.6%; in assay [3] (setting [11]), 50.3%.

As to `CCOc1ccc(C2C3=C(CC(C)(C)CC3=O)Nc3c2c(C(C)(C)C)nn3-c2ccc(Cl)cc2)cc1` (stereo not drawn) [Compound 964127], in assay [1], the “Anti-proliferative effects” value was “Yes”. Moreover, the IC50 in assay [1] was less than 20 µM. Besides, the viability at 1 µM in assay [2] (setting [6]) is 100%; in assay [2] (setting [7]) it was 100%; in assay [2] (setting [8]), 100%; in assay [3] (setting [9]), 42%; in assay [3] (setting [10]), 76.2%; in assay [3] (setting [11]), 59.1%.

`COc1cc(OC)cc(C2C3=C(CC(C)(C)CC3=O)Nc3c2c(C(C)(C)C)nn3-c2ccc(Cl)cc2)c1` (stereo not drawn) [Compound 964144]: in assay [1], the “Anti-proliferative effects” value is recorded as “Yes”. The IC50 in assay [1] was less than 20 µM. For the same compound, the viability at 1 µM was 100% in assay [2] (setting [6]); 100% in assay [2] (setting [7]); 100% in assay [2] (setting [8]); 54% in assay [3] (setting [9]); 66.2% in assay [3] (setting [10]); 60.1% in assay [3] (setting [11]).

`Cc1cccc(-n2nc(C(C)(C)C)c3c2NC2=C(C(=O)CC(C)(C)C2)C3c2ccc(C(C)(C)C)cc2)c1C` (stereo not drawn) [Compound 964336]: the “Anti-proliferative effects” value in assay [1] is “Yes”. In addition, in assay [1], the IC50 was less than 20 µM. Moreover, the viability at 1 µM in assay [2] (setting [6]) was determined as 96%; in assay [2] (setting [7]), 83%; in assay [2] (setting [8]) it was 89.5%; in assay [3] (setting [9]), 32%; in assay [3] (setting [10]), 56%; in assay [3] (setting [11]), 44%.

As for `Cc1ccc(C2C3=C(CC(C)(C)CC3=O)Nc3c2c(C(C)(C)C)nn3-c2cccc(F)c2)cc1` (stereo not drawn) [Compound 964352], in assay [1], the “Anti-proliferative effects” value is “Yes”. Moreover, the IC50 in assay [1] was less than 20 µM. The viability at 1 µM in assay [2] (setting [6]) is 93%; in assay [2] (setting [7]), 74%; in assay [2] (setting [8]) it was 83.5%; in assay [3] (setting [9]), 33%; in assay [3] (setting [10]), 52.9%; in assay [3] (setting [11]), 43%.

For the compound `O=c1cc(N2CCOCC2)oc2c(-c3ccccc3)cccc12` [LY294002, reference compound], the cytotoxicity at 1 µM in assay [4] (Concentration 1 μM) is less than 5%. Also, the cytotoxicity at 5 µM in assay [4] (Concentration 5 μM) was 50%. In addition, in assay [4] (Concentration 10 μM), the cytotoxicity at 10 µM was 60%. Moreover, the cytotoxicity at 50 µM in assay [4] (Concentration 50 μM) was 90%.

Take `O=c1c(O)c(-c2ccc(O)c(O)c2)oc2cc(O)cc(O)c12` [quercetin]: in assay [5], the IC50 was 3.8 µM.
